ChEMBL document CHEMBL1201862, “PubChem BioAssay data set” (2004)
Active and inactive are the calls of the source.

How the values were obtained:
[1] = HGIII-sPLA2 enzyme inhibition potency – biochemical, QFRET, IC50, dose response (AID 743457);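 further: green fluorescence rise as the enzyme cleaves BODIPY PC-A2 in liposomes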
[2] = molecular target: T1, Rac GTPase-activating protein 1 (Homo sapiens, UniProt Q9H0H5); experiment: blockers of MgcRacGAP-driven Rac1 GTP hydrolysis – biochemical, ADP Hunter fluorescence, primary and confirmatory, confirmation (AID 624330); assay type: functional
T1 sequence (Q9H0H5 whole entry): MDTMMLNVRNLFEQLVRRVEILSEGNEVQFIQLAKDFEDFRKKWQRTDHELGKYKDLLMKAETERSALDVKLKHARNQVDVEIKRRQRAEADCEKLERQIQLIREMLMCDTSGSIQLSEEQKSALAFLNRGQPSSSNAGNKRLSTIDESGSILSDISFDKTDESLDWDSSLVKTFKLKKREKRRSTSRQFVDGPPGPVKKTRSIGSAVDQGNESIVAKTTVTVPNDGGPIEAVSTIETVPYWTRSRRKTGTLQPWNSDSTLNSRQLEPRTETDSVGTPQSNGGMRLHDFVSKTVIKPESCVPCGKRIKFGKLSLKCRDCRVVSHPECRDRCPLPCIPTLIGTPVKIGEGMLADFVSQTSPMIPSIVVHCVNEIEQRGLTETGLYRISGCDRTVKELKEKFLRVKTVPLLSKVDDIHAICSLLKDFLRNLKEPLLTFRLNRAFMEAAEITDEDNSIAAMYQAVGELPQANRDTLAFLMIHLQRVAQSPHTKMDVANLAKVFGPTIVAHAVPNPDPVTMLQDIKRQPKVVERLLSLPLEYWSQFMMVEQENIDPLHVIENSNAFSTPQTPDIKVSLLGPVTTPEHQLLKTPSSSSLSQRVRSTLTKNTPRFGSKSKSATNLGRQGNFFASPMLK

[3] = general mammalian cell viability loss – activator set, cherry-pick, cytotoxicity control for miR-122 modulator project, dose response (AID 720690); assay type: functional, cell-based;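 further: HEK293T human cells scored for general mammalian cytotoxicity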
[4] = general mammalian cell viability loss – inhibitor set, cherry-pick, set 2, cytotoxicity control for miR-122 modulator project, dose response (AID 720697); assay type: functional, cell-based
[5] = molecular target: T2, Oxysterols receptor LXR-beta (Homo sapiens, UniProt P55055); assay type: functional, cell-based
T2 sequence (P55055 whole entry): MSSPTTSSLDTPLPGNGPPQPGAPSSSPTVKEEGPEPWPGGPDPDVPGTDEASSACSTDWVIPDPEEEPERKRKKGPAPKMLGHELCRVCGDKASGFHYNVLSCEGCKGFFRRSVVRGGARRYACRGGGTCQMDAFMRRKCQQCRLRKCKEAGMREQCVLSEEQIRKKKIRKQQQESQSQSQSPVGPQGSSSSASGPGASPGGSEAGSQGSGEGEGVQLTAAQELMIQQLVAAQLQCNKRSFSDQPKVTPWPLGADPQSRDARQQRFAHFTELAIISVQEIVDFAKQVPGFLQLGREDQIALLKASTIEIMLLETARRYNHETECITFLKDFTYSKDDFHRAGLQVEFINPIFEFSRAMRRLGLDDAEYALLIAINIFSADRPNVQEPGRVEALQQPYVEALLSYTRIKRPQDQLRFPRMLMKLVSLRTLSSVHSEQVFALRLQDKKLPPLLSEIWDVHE

[6] = blockade of melanocortin 4 receptor signaling – cell-based, plate reader, cherry pick, counter-screen for LGR2 antagonist project, dose response (AID 743444); assay type: functional;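 further: transfected HEK 293 cells stimulated with alpha-MSH peptide; potency of inhibitors of the alpha-MSH evoked signal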
[7] = blockers of bursicon-stimulated LGR2 cAMP reporter – cell-based, HEK293, CRE-luciferase reporter, cherry pick, set 2, dose response (AID 743343); assay type: functional;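 further: transfected cells were stimulated with diluted bursicon conditioned medium after compound addition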
[8] = HIV-1 AD8 envelope cell-cell fusion blockers – cherry-pick, dose response (AID 652062); assay type: functional, cell-based;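 further: luciferase signal from cell-cell fusion driven by HIV-1 clade B AD8 Env; potency is for inhibitors of fusion seen as a drop in luminescence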
[9] = blockers of HIV-1 envelope-mediated cell-cell fusion – cherry-pick, dose response (AID 652057); assay type: functional, cell-based
[10] = blockers of HIV-1 ZM109 envelope-driven cell-cell fusion – HeLa effector, CEM target cells, luciferase, cherry-pick, dose response (AID 652058); assay type: functional, cell-based;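 further: luciferase signal from HIV-1 Env mediated cell-cell fusion of effector and target cells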
[11] = molecular target: T2, Oxysterols receptor LXR-beta; assay type: functional, cell-based; remark: listed apart in the source
Paired box protein Pax-8 = Paired box protein Pax-8 (Homo sapiens, UniProt Q06710); experiment: PAX8 transcriptional activity inhibition in RMG-I – RMG-I cells, luciferase, cherry-pick, dose response (AID 687027); assay type: functional, cell-based;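 further: luciferase reporter driven by Pax8 target thyroperoxidase promoter measured by SteadyGlo luminescence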
[12] = off-target signal loss in HeLa-CEM21 co-culture – HeLa F-luc CTL cells, cherry-picked, counter-screen for HIV-1 Env fusion inhibitor project, dose response (AID 652040); assay type: functional, cell-based;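 further: potency for signal decrease marking cytotoxic or nonspecific inhibition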
[13] = A549 cell cytotoxicity, dose response, cytotoxicity control, plate reader, cherry-pick, antagonist series (AID 743412); assay type: functional, cell-based
[14] = P. falciparum Dd2 growth inhibitors, dose response, SYBR Green, cherry-picked samples (AID 1159567); assay type: functional, cell-based
[15] = toxicity to human hepatoma HepG2 cells – cell-based, cherry-picked samples, cytotoxicity control, dose response (AID 1159577); assay type: functional
[16] = molecular target: T3, RNA-editing ligase 1, mitochondrial (Trypanosoma brucei brucei, UniProt P86926); experiment: inhibition of trypanosome RNA editing ligase – biochemical, fluorescence, Trypanosoma brucei, dose response (AID 1117295); assay type: functional
T3 sequence (P86926 whole entry): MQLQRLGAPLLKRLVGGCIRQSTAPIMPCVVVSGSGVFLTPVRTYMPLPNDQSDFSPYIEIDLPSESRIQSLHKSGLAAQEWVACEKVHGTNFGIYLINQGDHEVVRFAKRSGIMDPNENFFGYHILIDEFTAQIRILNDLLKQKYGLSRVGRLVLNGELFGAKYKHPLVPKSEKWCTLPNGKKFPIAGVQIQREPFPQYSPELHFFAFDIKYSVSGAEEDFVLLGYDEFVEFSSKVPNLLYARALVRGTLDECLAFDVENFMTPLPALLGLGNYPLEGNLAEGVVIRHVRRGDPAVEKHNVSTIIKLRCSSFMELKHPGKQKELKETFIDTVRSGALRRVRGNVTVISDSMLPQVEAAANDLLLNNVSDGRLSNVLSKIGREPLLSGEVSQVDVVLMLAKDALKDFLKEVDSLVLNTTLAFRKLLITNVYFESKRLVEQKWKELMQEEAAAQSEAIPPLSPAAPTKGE

[17] = molecular target: T4, Histone-lysine N-methyltransferase NSD2 (Homo sapiens, UniProt O96028); assay type: biochemical
T4 sequence (O96028 whole entry): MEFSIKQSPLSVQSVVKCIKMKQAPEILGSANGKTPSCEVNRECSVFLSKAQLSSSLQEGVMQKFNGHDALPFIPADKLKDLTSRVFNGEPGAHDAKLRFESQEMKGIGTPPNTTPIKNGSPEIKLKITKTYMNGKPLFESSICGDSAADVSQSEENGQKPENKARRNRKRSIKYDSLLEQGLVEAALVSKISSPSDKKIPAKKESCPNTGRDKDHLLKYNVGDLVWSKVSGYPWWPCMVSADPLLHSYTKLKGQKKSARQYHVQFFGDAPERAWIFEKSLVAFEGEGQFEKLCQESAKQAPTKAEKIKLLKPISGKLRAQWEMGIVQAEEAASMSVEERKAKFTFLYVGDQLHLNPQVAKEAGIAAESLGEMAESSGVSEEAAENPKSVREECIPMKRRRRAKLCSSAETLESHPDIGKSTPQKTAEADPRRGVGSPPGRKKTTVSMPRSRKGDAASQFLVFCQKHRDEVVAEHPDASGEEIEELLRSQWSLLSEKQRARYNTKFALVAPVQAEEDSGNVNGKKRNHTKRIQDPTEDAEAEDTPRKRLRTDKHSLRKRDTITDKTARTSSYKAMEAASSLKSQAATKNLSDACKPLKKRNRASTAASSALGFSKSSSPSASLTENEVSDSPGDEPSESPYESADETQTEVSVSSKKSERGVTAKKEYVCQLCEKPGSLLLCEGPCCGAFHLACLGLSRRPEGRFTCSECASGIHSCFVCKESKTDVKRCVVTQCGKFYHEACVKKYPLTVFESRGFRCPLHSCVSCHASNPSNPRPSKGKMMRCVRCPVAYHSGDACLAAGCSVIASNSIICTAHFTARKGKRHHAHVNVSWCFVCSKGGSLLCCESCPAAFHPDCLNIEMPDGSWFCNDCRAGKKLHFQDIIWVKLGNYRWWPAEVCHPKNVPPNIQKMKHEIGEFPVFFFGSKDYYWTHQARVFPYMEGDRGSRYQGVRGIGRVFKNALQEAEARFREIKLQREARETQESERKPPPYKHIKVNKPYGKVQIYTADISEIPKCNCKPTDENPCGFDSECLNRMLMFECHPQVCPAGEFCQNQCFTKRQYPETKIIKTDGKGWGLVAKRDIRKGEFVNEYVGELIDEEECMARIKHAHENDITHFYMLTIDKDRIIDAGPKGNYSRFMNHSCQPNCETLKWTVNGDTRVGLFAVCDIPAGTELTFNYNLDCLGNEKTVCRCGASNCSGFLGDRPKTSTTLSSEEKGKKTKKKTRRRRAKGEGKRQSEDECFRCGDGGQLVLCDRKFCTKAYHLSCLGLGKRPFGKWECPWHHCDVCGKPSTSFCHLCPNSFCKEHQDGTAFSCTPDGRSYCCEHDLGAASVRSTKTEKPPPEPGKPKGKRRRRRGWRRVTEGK

Paired box protein Pax-8, sequence (Q06710 whole entry, the tested form may be a part): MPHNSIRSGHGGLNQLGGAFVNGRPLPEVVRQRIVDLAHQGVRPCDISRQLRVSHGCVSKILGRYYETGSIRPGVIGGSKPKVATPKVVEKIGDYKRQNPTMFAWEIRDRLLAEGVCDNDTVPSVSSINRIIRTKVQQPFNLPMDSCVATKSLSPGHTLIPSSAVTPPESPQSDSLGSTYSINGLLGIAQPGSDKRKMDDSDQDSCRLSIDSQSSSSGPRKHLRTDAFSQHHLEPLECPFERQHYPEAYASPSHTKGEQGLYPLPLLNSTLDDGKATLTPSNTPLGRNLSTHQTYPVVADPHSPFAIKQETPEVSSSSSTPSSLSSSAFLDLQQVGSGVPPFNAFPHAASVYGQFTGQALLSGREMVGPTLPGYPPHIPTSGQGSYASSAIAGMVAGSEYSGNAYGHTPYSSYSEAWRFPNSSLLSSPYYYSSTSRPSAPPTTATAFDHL

With `CCN(CC)c1ccc(/C=N/NC(=S)NC)c(O)c1` the IC50 [1] was > 122 µM (inactive) and the IC50 [2] was 58.2 µM (active).
With `CNC[C@H]1Oc2cc(C#CC3CCCC3)ccc2S(=O)(=O)N([C@H](C)CO)C[C@H]1C` the AC50 [3] was 30.9 µM (active).
For `COCCN(C[C@@H]1[C@@H](c2ccccc2)[C@H](CO)N1C(=O)C1CC1)C(C)=O`, the AC50 [4] was 502 nM (active).
In the case of `CN(C)c1cccc(-c2cnc(N3CCC(C(N)=O)CC3)s2)c1`, the EC50 [5] is reported as > 67.5 µM (inactive).
With `Cc1ccsc1/C=N/Nc1cccc(C(=O)O)c1` the EC50 (cells) was > 67.5 µM (inactive), the AC50 [6] was 1.14 µM (active) and the AC50 [7] was 1.3 µM (active). For the same molecule, the AC50 [8] was 2.65 µM (active), the AC50 [9] was 1.32 µM (active) and the AC50 [10] was 7.12 µM (active). The EC50 [11] was > 67.5 µM (inactive), the AC50 (Paired box protein Pax-8) was 4.41 µM (active) and the IC50 [2] was 92.5 µM (active). The AC50 [12] was 2.45 µM (active) and the AC50 [13] was > 52 µM (inactive).
With `C/C(=N/N=C(/C)c1cccs1)c1cccs1` the EC50 (cells) was > 67.6 µM (inactive) and the EC50 [11] was > 67.6 µM (inactive).
In the case of `CN(C)CC(=O)N[C@@H]1C[C@@H]2O[C@@H](CO)CC[C@@H]2O[C@@H]1CCc1ccc(C2=CCCCC2)cc1`, the AC50 [14] is reported as 6.13 µM (active) and the AC50 [15] is reported as 27.7 µM (active).
With `COC(=O)C1=C(C)N(Cc2cccc(C(F)(F)F)c2)C(NCc2cc(OC)c(OC)c(OC)c2)=NC1CCc1ccccc1` (configuration not stated) the IC50 [16] was > 96.6 µM (inactive).
In the case of `CNCCCC12CCC(c3ccccc31)c1ccccc12` [MAPROTILINE], the AC50 [17] is reported as > 20 µM (inactive).
